Converted amounts (≈) assume the structure as drawn. Read-outs that look alike come from different tables or passages of the source.

Results on four molecules are retold here after US20230159436A1, “APPLICATIONS OF AMIDE ANALOGS OF TRITERPENES IN CURES OF CANCER AND OTHER DISEASES” (Pacific Arrow Limited, priority 2021, published 2023).

Data set [1] concerns red blood cells (RBC). Description: Haemolytic assay. Type of data set: cell-based, human. The method, then:
Erythrocytes (RBC) were isolated from human blood (EDTA whole blood, collected randomly). 50 ul of the 10% RBC suspension (in PBS) was added to 2 ml of sample solutions (concentration range from 0.1 ug/ml to 400 ug/ml) in PBS. The mixture was vortexed briefly and sat for 60 min at room temperature. The mixture was spun at 3K for 10 min and the relative amounts of lysed hemoglobin in the supernatant were measured at 540 nm. The synthetic compounds of present application were tested with this method.

Data set [2] has as its system U2OS, H460, HTB-9, ES2, HCT116, Capan, OVCAR3, DU145, SK-Mel-5, KB, A498, MCF-7, HepG2, T98G, K562, HeLa. Description: MTT Cytotoxic Assay of reaction products and isolated compounds. Type of data set: cell-based. From the text: The peaks, fractions and compounds are selected according to the activities of times studies and the changes of peaks. Selecting the HPLC fractions for isolation is according to the cytotoxic activity of the reaction product obtained at a specific time. The compounds having strong to weak activities are selected and isolated. Selecting the HPLC fractions for isolation may be according to the cytotoxic activity of times studies and the change of peaks. The anti cancer activities are the MTT studies of bone (U2OS), lung (H460), bladder (HTB-9), ovary (ES2), colon (HCT116), pancreas (Capan), ovary (OVCAR3), prostate (DU145), skin (SK-Mel-5), mouth (KB), kidney (A498), breast (MCF-7), liver (HepG2), brain (T98G), luekemia (K562), cervix (HeLa).
Esterification, amidation, amination, or sulfonamidation of compound (A), (B), (C), (D1), (D2), (E), (F), (G), (H1), (H2), E4A, E4A2Y, E4D, E4D1, (P1), P(2), terpene, isoprene, triterpenes, hydroxylated triterpenes, with acyl halide, wherein the halide comprise chloride, bromide, fluoride and iodide, wherein the acyl halide comprise acyl chloride, wherein acyl chloride comprise tigloyl chloride, angeloyl chloride, acetyl chloride, crotonoyl chloride, 3,3-dimethylartyloyl chloride, senecioyl chloride, cinnamoyl chloride, pentenoyl chloride, hexanoyl chloride, benzoyl chloride, ethylbutyryl chloride, propionyl chloride, 2-propenoyl chloride, isobutyryl chloride, butyryl chloride, (2E)-2-pentenoyl chloride, 4-Pentenoyl chloride, 5-hexenoyl chloride, heptanoyl chloride, octanoyl chloride, nonanoyl chloride, decanoyl chloride, Lauroyl chloride, myristoyl chloride, oleoyl chloride. The compounds vary in composition when the time or temperature of the reaction is changed. The peaks, fractions and compounds are selected according to the activities of times studies and the changes of peaks. The compounds having strong to weak activities are selected and isolated. The anti cancer activities (Cytotoxic Assay) are the MTT studies of bone (U2OS), lung (H460), bladder (HTB-9), ovary (ES2), colon (HCT116), pancreas (Capan), ovary (OVCAR3), prostate (DU145), skin (SK-Mel-5), mouth (KB), kidney (A498), breast (MCF-7), liver (HepG2), brain (T98G), luekemia (K562), cervix (HeLa). The active esterification, amidation, amination, or sulfonamidation products are purified with HPLC. The reaction product of mixtures and individual compounds are tested with MTT Cytotoxic Assay. Details of method are in Experiment 3 of the present application. A second esterification of compound can be selected from the above experiment results to produce new active compounds. A partial esterification compound is selected from the above experiments to perform a second or repeated with a third esterification with different acyl chloride in order to produce new active compounds with the experiments in the present application. The active compounds of this invention are triterpenes in form of amine, sulfonamides, amide, and urea analogs, providing extremely stable activity in solution. They prolong the activities and duration of drug in a subject.
Cells. HTB-9 (bladder), HeLa-S3 (cervix), DU145 (prostate), H460 (lung), MCF-7 (breast), K562 (leukemia), HCT116 (colon), HepG2 (liver), U2OS (bone), T98G (brain), SK-MEL-5 (Skin) and OVCAR 3, ES2 (ovary), Pancreas (Capan), Mouth (KB), Kidney (A498).
MTT Assay. The procedure for MTT assay followed the method described by Carmichael et al. (1987) with modifications. The cells were seeded into a 96-well plate at for 24 hours before drug-treatment. The cells were then exposed to the drugs for 48, 72, or 96 hours. After the drug-treatment, MTT (0.5 mg/mL) was added to cultures and incubated for an hour. The formazan (product of the reduction of tetrazolium by viable cells) formed and was dissolved with DMSO and the O.D. at 490 nm, and was measured by an ELISA reader. The MTT level of the cells before drug-treatment was also measured (T0). […]

The subject of data set [3] is cancer growth, cancer invasion, cells invasion or cancer cell invasion. Description: Inhibition of cancer growth and invasion (anti-cancer activity). Type of data set: cell-based. From the text:
The program is based on the purification methods and biological assays including the MTT assay as described in International Application No. PCT/US05/31900, filed Sep. 7, 2005, U.S. Ser. No. 11/289,142, filed Nov. 28, 2005, and U.S. Ser. No. 11/131,551, filed May 17, 2005, and PCT/US2008/002086, 1188-ALA-PCT, filed Feb. 15, 2008, Ser. No. 12/344,682, 1020-B1-US, filed Dec. 29, 2008, US009499577B2, filed Jun. 24, 2014. The details of Analysis of gene expression of ES2 cells after Y-treatment by Microarray, Data Analysis Methods and Western blot in PCT/US2008/002086, 1188-ALA-PCT, filed Feb. 15, 2008, and the cell invasion experiments methods in International Application PCT/US2010/0042240, filed Jul. 16, 2010.

Data set [4] deals with ovarian cancer cells. Description: Inhibiting growth of ovarian cancer cells. Type of data set: cell-based.

For the molecule `CC1(C)CC2C3=CCC4[C@@]5(C)CC[C@H](O)[C@](C)(CO)C5CC[C@@]4(C)[C@]3(C)C[C@@H](O)[C@@]2(CO)[C@@H](O)[C@@H]1O` (stereo partly drawn) [E4A], the hemolytic activity entry in data set [1] is “no hemolytic activity”. Further, in data set [2] (FIG. 8, FIG. 10), the MTT cytotoxic activity result is “no activity”. In data set [3], the anti-cancer activity entry is reported as “no anti-cancer activity” and the “inhibiting cancer growth, cancer invasion, cells invasion or cancer cell invasion” value (“inhibiting cancer growth” for short) is recorded as “no effect”.
One may read the IC50 as the point on the concentration scale where inhibition reaches its midpoint. For the molecule `C/C=C(/C)C(=O)O[C@@H]1[C@H](C)CC2C3=CCC4[C@@]5(C)CC[C@H](O[C@@H]6OC(C(=O)O)[C@@H](O)C(O[C@@H]7O[C@@H](CO)C(O)C7O)C6O[C@@H]6OC(CO)[C@H](O)C(O)C6O)C(C)(C)C5CC[C@@]4(C)[C@]3(C)[C@@H](O)[C@@H](O)[C@@]2(CO)[C@H]1OC(=O)/C(C)=C\C` (stereo partly drawn) [Compound Y, 3-O-[β-D-galactopyranosyl (1→2)]-α-L-arabinofuranosy (1→3)-β-D-glucuronopyranosyl-21,22-O-diangeloyl-3β,15α,16α,21β,22α,28-hexahydroxyolean-12-ene], in data set [4], the IC50 was around 1.5 µg/mL (≈ 1.33 µM).
As for `CC1(C)CC2C3=CCC4C5(C)CCC(O)C(C)(CN)C5CCC4(C)C3(C)CC(O)C2(CN)C(O)C1O` (stereo not drawn) [E4D], the hemolytic activity entry in data set [1] was “no hemolytic activity”. Further, the Cytotoxicity activity result in data set [2] was “none and None”. Also, in data set [3], the anti-cancer activity entry is listed as “no anti-cancer activity” and the “inhibiting cancer growth” value was “no effect”.
As for `CC1(C)CC2C3=CCC4C5(C)CCC(N)C(C)(CN)C5CCC4(C)C3(C)CC(N)C2(CN)C(N)C1N` (stereo not drawn) [E4D1], the hemolytic activity result in data set [1] is recorded as “no hemolytic activity”. The Cytotoxicity activity result in data set [2] is “none and moderate and NONE”; in data set [2] (listed as E1E4D1), “none”; in data set [2] (listed as I 1E4D1), “none”. Besides, the anti-cancer activity result in data set [3] is on record as “no anti-cancer activity”. Further, the “inhibiting cancer growth” value in data set [3] is recorded as “no effect”.
